“And” between values parts separate entries of the source, which are not always exact repeats. Equal values may be shown once. Read-outs that look alike come from different tables or passages of the source. Blank lines part the entries; values can stand above or below the compound they belong to.
Key:
MNK1 = MNK1 (Homo sapiens, UniProt Q9BUB5); assay: MNK1 substrate phosphorylation assay; type: biochemical; conditions: recombinant human kinase
MNK2 = MNK2 (Homo sapiens, UniProt Q9HBH9); assay: MNK2 substrate phosphorylation assay; type: biochemical; conditions: recombinant human kinase
Chain of MNK2 (Q9HBH9 whole entry): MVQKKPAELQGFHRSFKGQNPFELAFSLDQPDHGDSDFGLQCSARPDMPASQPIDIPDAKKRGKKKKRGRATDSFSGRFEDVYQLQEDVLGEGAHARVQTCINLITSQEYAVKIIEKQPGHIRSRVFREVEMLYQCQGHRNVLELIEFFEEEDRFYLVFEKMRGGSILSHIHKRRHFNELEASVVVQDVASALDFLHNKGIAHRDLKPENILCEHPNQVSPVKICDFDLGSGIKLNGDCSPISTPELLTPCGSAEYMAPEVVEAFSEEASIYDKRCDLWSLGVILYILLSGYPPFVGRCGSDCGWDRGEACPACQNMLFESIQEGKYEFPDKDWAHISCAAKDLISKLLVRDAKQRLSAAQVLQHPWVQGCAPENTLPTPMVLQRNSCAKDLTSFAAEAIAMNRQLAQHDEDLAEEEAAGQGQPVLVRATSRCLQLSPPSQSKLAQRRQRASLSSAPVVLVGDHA

[1] = system: eIF4E phosphorylation at Serine 209 in the human embryonic kidney (HEK) 293 cell line; assay: eIF4E phosphorylation in HEK 293 cells (fluorescent plate reader); type: cell-based; conditions: Homo sapiens, HEK293, 2 h, eIF4E phosphorylation at Serine 209, 2 hours exposure
Method in brief: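 HEK-293 cells were treated with compound for 2 h, then methanol-fixed and Triton-permeabilized. Ser209 phospho-eIF4E was stained with primary antibody (1:2000, overnight) and an Alexa Fluor 488 secondary. Fluorescence was normalized to DAPI, and IC50 was fitted from concentration-response data.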

P-gp (human MDR1, ABCB1) = assay: MDCK-MDR1 permeability (blood brain barrier permeability); type: in vitro ADME, Canine; conditions: dog; for efflux ratio at 5 μM: MDCK-MDR1, 5 μM, read-out: Efflux ratio (ratio B-A/A-B); for Papp A→B at 5 μM: MDCK-MDR1, Apical to basolateral transport; for Papp A→B at 5 μM / Papp B→A at 5 μM: average of two experiments; for Papp B→A at 5 μM: MDCK-MDR1, Basolateral to apical transport
[2] = Brain to plasma ratio, 4ET-01-021 at 3.0 mg/kg PO; type: in vivo, male CD-1 mouse; conditions: for concentration at 2 h: oral, 3 mg/kg
[3] = Pharmacokinetic study, 4ET-03-009 at 20 mg/kg oral; type: in vivo, CD-1 male mice; conditions: for AUCinf/D / Cmax/D: dose normalized; for concentration at 0.083 hours / concentration at 0.25 hours / concentration at 0.5 hours / concentration at 1 hours / concentration at 2 hours / concentration at 4 hours / concentration at 6 hours / concentration at 8 hours / concentration at 24 hours: oral
Method: Compound 4ET-03-009 was dissolved in a 10% dimethylacetamide (DMA)/3000 polyethylene glycol (PEG) 300/400% propylene glycol (PG)/200% water solvent. […] Plasma was collected at indicated timepoints and plasma concentration of compound 4ET-03-009 was measured using liquid chromatography-mass spectrometry/mass spectrometry (LC-MS/MS). Results are presented in FIG. 1 and Tables 3, 4, and 5.
Compound 4ET-03-009 was dissolved in a 10% dimethylacetamide (DMA)/30% polyethylene glycol (PEG) 300/40% propylene glycol (PG)/20% water solvent. Dosing and assay were performed as described in Biological Example 2. Results are presented in FIG. 3 and Tables 7, 8, and 9, below.

[4] = Liver microsome stability, rat; type: in vitro ADME; conditions: Rat liver microsomes (#)
[5] = target: Cdc2-like kinase 4 (CLK4) (Homo sapiens, UniProt Q9HAZ1); assay: Off-target kinase screen CLK4; type: biochemical; conditions: 1 μM test compound
Chain of Cdc2-like kinase 4 (CLK4) (Q9HAZ1 whole entry): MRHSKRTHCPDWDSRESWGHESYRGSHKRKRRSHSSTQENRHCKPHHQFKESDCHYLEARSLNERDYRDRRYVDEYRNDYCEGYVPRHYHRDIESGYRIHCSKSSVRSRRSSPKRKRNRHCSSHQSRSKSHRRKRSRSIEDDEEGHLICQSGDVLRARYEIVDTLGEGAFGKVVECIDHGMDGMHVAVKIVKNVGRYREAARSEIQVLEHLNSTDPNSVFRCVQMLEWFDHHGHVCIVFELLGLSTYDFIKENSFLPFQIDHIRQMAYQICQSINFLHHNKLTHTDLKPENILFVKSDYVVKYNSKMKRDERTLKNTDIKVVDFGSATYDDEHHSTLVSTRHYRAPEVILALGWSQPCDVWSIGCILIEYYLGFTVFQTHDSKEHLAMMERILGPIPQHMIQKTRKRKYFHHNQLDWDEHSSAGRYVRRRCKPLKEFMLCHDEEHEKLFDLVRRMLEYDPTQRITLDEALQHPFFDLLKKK
Excerpt: These kinases were chosen because they are the only known off-target hit kinases for eFT508. These assays were done using recombinant human kinases (CLK4, DRAK1 and PKG2) in a substrate phosphorylation assay. % activity remaining after MNK inhibitor treatment is indicated in Table 12.

[6] = male, CD-1, mouse, plasma, po, 20 mg/kg, Mean (n = 3)
[7] = male, CD-1, mouse, plasma, po, 20 mg/kg, individual animals

Chain of MNK1 (Q9BUB5 whole entry): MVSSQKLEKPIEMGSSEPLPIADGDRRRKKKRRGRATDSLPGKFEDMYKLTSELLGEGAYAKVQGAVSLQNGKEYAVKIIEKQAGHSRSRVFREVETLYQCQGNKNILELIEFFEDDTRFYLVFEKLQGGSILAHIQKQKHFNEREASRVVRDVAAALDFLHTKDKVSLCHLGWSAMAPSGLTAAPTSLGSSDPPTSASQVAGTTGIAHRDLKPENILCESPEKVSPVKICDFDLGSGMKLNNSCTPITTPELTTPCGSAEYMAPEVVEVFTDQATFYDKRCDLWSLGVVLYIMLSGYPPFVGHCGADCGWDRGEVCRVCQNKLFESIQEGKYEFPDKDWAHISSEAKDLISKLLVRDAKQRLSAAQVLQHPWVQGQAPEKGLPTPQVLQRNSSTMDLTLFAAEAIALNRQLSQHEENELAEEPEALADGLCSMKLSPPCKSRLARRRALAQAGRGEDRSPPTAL

IC50 (MNK1): 38.7 nM
IC50 (MNK2): 5.8 nM
efflux ratio at 5 μM (P-gp (human MDR1, ABCB1)): 0.9
Papp A→B at 5 μM (P-gp (human MDR1, ABCB1)): 553 nm/s
Papp B→A at 5 μM (P-gp (human MDR1, ABCB1)): 520 nm/s
Tissue Homogenate Concentration ([2]; 2 hr, Brain, individual): 17.6 ng/mL and 12.2 ng/mL
Plasma Concentration ([2]; 2 hr, Plasma, individual): 0.462 µg/mL and 0.383 µg/mL
Kp at 2 h ([2]; male, CD-1, mouse, 2 h post dosing, Brain, read-out: Mean tissue/plasma concentration ratio (B:P ratio)): 0.142
concentration at 2 h ([2]; male, CD-1, mouse, brain homogenate, 2 h, Brain, read-out: Mean (brain homogenate)): 0.0148 µg/mL
concentration at 2 h ([2]; male, CD-1, mouse, brain homogenate, 2 hr, Brain, individual, read-out: Tissue Homogenate Concentration): 0.0145 µg/mL
concentration at 2 h ([2]; male, CD-1, mouse, brain, 2 h, Brain, read-out: Mean Tissue): 59.1 ng/g
concentration at 2 h ([2]; male, CD-1, mouse, plasma, 2 h, Plasma, read-out: Mean (plasma)): 0.416 µg/mL
concentration at 2 h ([2]; male, CD-1, mouse, plasma, 2 hr, Plasma, individual, read-out: Plasma Concentration): 0.404 µg/mL
Compound: CCC1=CC2(CCC1)NC(=O)c1c(C)cc(Nc3cc(N)ncn3)c(=O)n12 (stereo not shown) [Compound 4ET-01-021, 6′-((6-Aminopyrimidin-4-yl)amino)-3-ethyl-8′-methyl-2′H-spiro[cyclohexane-1,3′-imidazo[1,5-a]pyridin]-2-ene-1′,5′-dione]
IC50 [1]: 6 nM

IC50 (MNK1): 31.3 nM
IC50 (MNK2): 2.6 nM
Plasma Conc. (per mouse n = 3) ([3]; 0.083 hours): 0.384 µg/mL and 0.304 µg/mL
Plasma Conc. (per mouse n = 3) ([3]; 0.25 hours): 0.529 µg/mL and 0.396 µg/mL
Plasma Conc. (per mouse n = 3) ([3]; 0.5 hours): 0.607 µg/mL and 0.497 µg/mL
Plasma Conc. (per mouse n = 3) ([3]; 1 hours): 0.561 µg/mL and 0.448 µg/mL
Plasma Conc. (per mouse n = 3) ([3]; 2 hours): 0.372 µg/mL and 0.286 µg/mL
Plasma Conc. (per mouse n = 3) ([3]; 4 hours): 0.144 µg/mL and 0.135 µg/mL
Plasma Conc. (per mouse n = 3) ([3]; 6 hours): 0.0713 µg/mL and 0.0587 µg/mL
Plasma Conc. (per mouse n = 3) ([3]; 8 hours): 0.0514 µg/mL and 0.0415 µg/mL
Plasma Conc. (per mouse n = 3) ([3]; 24 hours): 0.00201 µg/mL and 0.00189 µg/mL
Tlast ([3]; Mean (n = 3)): 24.0 h
t1/2 ([3]; Mean (n = 3)): 3.55 h
AUCinf/D ([3]; Mean (n = 3)): 113 kg·h/kL
Cmax/D ([3]; Mean (n = 3)): 29.5 kg/kL
AUC0-8 hours ([3]; individual animals): 1.847 µg·h/mL and 1.501 µg·h/mL
AUCinf ([3]; individual animals): 2.284 µg·h/mL and 1.858 µg·h/mL
AUClast ([3]; individual animals): 2.274 µg·h/mL and 1.848 µg·h/mL
Clast ([3]; individual animals): 0.00201 µg/mL and 0.00189 µg/mL
Cmax ([3]; individual animals): 0.607 µg/mL and 0.497 µg/mL
MRTinf ([3]; individual animals): 3.53 h
Tlast ([3]; individual animals): 24.0 h
t1/2 ([3]; individual animals): 3.47 h and 3.61 h
Cmax/D ([3]; individual animals): 33.3 kg/kL and 30.4 kg/kL and 24.9 kg/kL
Tmax ([3]; male, CD-1, mouse, plasma, individual animals): 0.5 h
concentration at 0.083 hours ([3]; male, CD-1, mouse, plasma, 20 mg/kg, 0.083 hours, mean n = 3, read-out: Plasma Conc. Mean): 0.331 µg/mL
concentration at 0.083 hours ([3]; male, CD-1, mouse, plasma, 20 mg/kg, 0.083 hours, read-out: Plasma Conc. (per mouse n = 3)): 0.304 µg/mL
concentration at 0.25 hours ([3]; male, CD-1, mouse, plasma, 20 mg/kg, 0.25 hours, mean n = 3, read-out: Plasma Conc. Mean): 0.53 µg/mL
concentration at 0.25 hours ([3]; male, CD-1, mouse, plasma, 20 mg/kg, 0.25 hours, read-out: Plasma Conc. (per mouse n = 3)): 0.665 µg/mL
concentration at 0.5 hours ([3]; male, CD-1, mouse, plasma, 20 mg/kg, 0.5 hours, mean n = 3, read-out: Plasma Conc. Mean): 0.59 µg/mL
concentration at 0.5 hours ([3]; male, CD-1, mouse, plasma, 20 mg/kg, 0.5 hours, read-out: Plasma Conc. (per mouse n = 3)): 0.666 µg/mL
concentration at 1 hours ([3]; male, CD-1, mouse, plasma, 20 mg/kg, 1 hours, mean n = 3, read-out: Plasma Conc. Mean): 0.553 µg/mL
concentration at 1 hours ([3]; male, CD-1, mouse, plasma, 20 mg/kg, 1 hours, read-out: Plasma Conc. (per mouse n = 3)): 0.649 µg/mL
concentration at 2 hours ([3]; male, CD-1, mouse, plasma, 20 mg/kg, 2 hours, mean n = 3, read-out: Plasma Conc. Mean): 0.355 µg/mL
concentration at 2 hours ([3]; male, CD-1, mouse, plasma, 20 mg/kg, 2 hours, read-out: Plasma Conc. (per mouse n = 3)): 0.408 µg/mL
concentration at 4 hours ([3]; male, CD-1, mouse, plasma, 20 mg/kg, 4 hours, mean n = 3, read-out: Plasma Conc. Mean): 0.153 µg/mL
concentration at 4 hours ([3]; male, CD-1, mouse, plasma, 20 mg/kg, 4 hours, read-out: Plasma Conc. (per mouse n = 3)): 0.18 µg/mL
concentration at 6 hours ([3]; male, CD-1, mouse, plasma, 20 mg/kg, 6 hours, mean n = 3, read-out: Plasma Conc. Mean): 0.0745 µg/mL
concentration at 6 hours ([3]; male, CD-1, mouse, plasma, 20 mg/kg, 6 hours, read-out: Plasma Conc. (per mouse n = 3)): 0.0936 µg/mL
concentration at 8 hours ([3]; male, CD-1, mouse, plasma, 20 mg/kg, 8 hours, mean n = 3, read-out: Plasma Conc. Mean): 0.0502 µg/mL
concentration at 8 hours ([3]; male, CD-1, mouse, plasma, 20 mg/kg, 8 hours, read-out: Plasma Conc. (per mouse n = 3)): 0.0576 µg/mL
concentration at 24 hours ([3]; male, CD-1, mouse, plasma, 20 mg/kg, 24 hours, mean n = 3, read-out: Plasma Conc. Mean): 0.00222 µg/mL
concentration at 24 hours ([3]; male, CD-1, mouse, plasma, 20 mg/kg, 24 hours, read-out: Plasma Conc. (per mouse n = 3)): 0.00275 µg/mL
concentration at 24 hours ([3]; male, CD-1, mouse, plasma, 20 mg/kg, Mean (n = 3), read-out: Clast): 0.00222 µg/mL
concentration at 24 hours ([3]; male, CD-1, mouse, plasma, 20 mg/kg, individual animals, read-out: Clast): 0.00275 µg/mL
AUC(0-inf) [3, 6]: 2.26 µg·h/mL
MRT inf [3, 6]: 3.59 h
half-life [3, 6]: 3.6 h
AUC(0-t) ([3]; male, CD-1, mouse, plasma, po, 20 mg/kg, Mean (n = 3), read-out: AUC0-8 hours): 1.83 µg·h/mL
AUC(0-t) ([3]; male, CD-1, mouse, plasma, po, 20 mg/kg, Mean (n = 3), read-out: AUClast): 2.25 µg·h/mL
Cmax ([3]; male, CD-1, mouse, plasma, po, 20 mg/kg, Mean (n = 3), read-out: Cmax): 0.59 µg/mL
AUC(0-inf) ([3]; male, CD-1, mouse, plasma, po, 20 mg/kg, for the study): 2.26 µg·h/mL
Cmax ([3]; male, CD-1, mouse, plasma, po, 20 mg/kg, for the study, read-out: Cmax): 1.4 µM
AUC(0-inf) [3, 7]: 2.63 µg·h/mL
MRT inf [3, 7]: 3.63 h
half-life [3, 7]: 3.58 h
AUC(0-t) ([3]; male, CD-1, mouse, plasma, po, 20 mg/kg, individual animals, read-out: AUC0-8 hours): 2.13 µg·h/mL
AUC(0-t) ([3]; male, CD-1, mouse, plasma, po, 20 mg/kg, individual animals, read-out: AUClast): 2.61 µg·h/mL
Cmax ([3]; male, CD-1, mouse, plasma, po, 20 mg/kg, individual animals, read-out: Cmax): 0.666 µg/mL
efflux ratio at 5 μM (P-gp (human MDR1, ABCB1)): 4.6
Papp A→B at 5 μM (P-gp (human MDR1, ABCB1)): 54 nm/s
Papp B→A at 5 μM (P-gp (human MDR1, ABCB1)): 250 nm/s
microsomal CLint ([4]; read-out: CLint rodent): 2.54 µL/min/mg
half-life ([4]; read-out: Rodent liver microsomes t1/2): 9.08 h
remaining activity at 1 µM [5]: 54%
Compound: Cc1cc(Nc2cc(NC(=O)C3CC3)ncn2)c(=O)n2c1C(=O)NC21CCOCC1 [Compound 4ET-03-009, N-(6-((8-Methyl-1,5-dioxo-1,2′,3′,5,5′,6′-hexahydro-2H-spiro[imidazo[1,5-a]pyridine-3,4′-pyran]-6-yl)amino)pyrimidin-4-yl)cyclopropanecarboxamide]
IC50 [1]: 1.7 nM
abnormal clinical symptoms during the study [3]: No abnormal clinical symptoms were observed
AUCinf/D ([3]; individual animals): 131 kg·h/kL and 114 kg·h/kL and 92.9 kg·h/kL
